Laboratory results reported in PubChem BioAssay (NCI).
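These data come from cells grown in 96-well plates and exposed to compound for 48 hours at five concentrations. TGI marks complete inhibition of growth.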

How the values were obtained:
Assay in all cases: NCI-60 cell line screen, 48 h
UACC-257 melanoma = system: UACC-257 melanoma
CCRF-CEM leukemia = system: CCRF-CEM leukemia
NCI-H522 lung = system: NCI-H522 lung
MDA-MB-231 breast = system: MDA-MB-231 breast
SK-OV-3 ovarian = system: SK-OV-3 ovarian
EKVX NSCLC = system: EKVX NSCLC
MDA-MB-435 = system: MDA-MB-435
OVCAR-8 ovarian = system: OVCAR-8 ovarian
M14 melanoma = system: M14 melanoma
SR leukemia = system: SR leukemia
SNB-19 CNS = system: SNB-19 CNS
HOP-92 NSCLC = system: HOP-92 NSCLC
OVCAR-4 ovarian = system: OVCAR-4 ovarian
U251 CNS = system: U251 CNS
UACC-62 melanoma = system: UACC-62 melanoma
T-47D breast = system: T-47D breast
KM12 colon = system: KM12 colon
UO-31 renal = system: UO-31 renal
SK-MEL-2 melanoma = system: SK-MEL-2 melanoma
IGROV1 ovarian = system: IGROV1 ovarian
MCF7 breast = system: MCF7 breast
ACHN renal = system: ACHN renal
COLO 205 colon = system: COLO 205 colon
BT-549 breast = system: BT-549 breast
LOX IMVI melanoma = system: LOX IMVI melanoma
A498 renal = system: A498 renal
HL-60(TB) leukemia = system: HL-60(TB) leukemia
SNB-75 CNS = system: SNB-75 CNS
DU-145 prostate = system: DU-145 prostate
HCC-2998 colon = system: HCC-2998 colon
OVCAR-5 ovarian = system: OVCAR-5 ovarian
K-562 leukemia = system: K-562 leukemia
HOP-62 NSCLC = system: HOP-62 NSCLC
PC-3 prostate = system: PC-3 prostate
SK-MEL-28 melanoma = system: SK-MEL-28 melanoma
SW-620 colon = system: SW-620 colon
NCI-H226 lung = system: NCI-H226 lung
SF-268 CNS = system: SF-268 CNS
RXF 393 renal = system: RXF 393 renal
NCI-H23 lung = system: NCI-H23 lung
SK-MEL-5 melanoma = system: SK-MEL-5 melanoma
HCT-15 colon = system: HCT-15 colon
HT29 colon = system: HT29 colon
MDA-N = system: MDA-N
CAKI-1 renal = system: CAKI-1 renal
SN12C renal = system: SN12C renal
786-0 renal = system: 786-0 renal
RPMI-8226 leukemia = system: RPMI-8226 leukemia
OVCAR-3 ovarian = system: OVCAR-3 ovarian
MALME-3M melanoma = system: MALME-3M melanoma
NCI/ADR-RES ovarian = system: NCI/ADR-RES ovarian
HS 578T breast = system: HS 578T breast
TK-10 renal = system: TK-10 renal
NCI-H460 lung = system: NCI-H460 lung
HCT-116 colon = system: HCT-116 colon
A549 NSCLC = system: A549 NSCLC
SF-295 CNS = system: SF-295 CNS
SF-539 CNS = system: SF-539 CNS
MOLT-4 leukemia = system: MOLT-4 leukemia

For `Nc1nc(=S)n(-c2ccc(Cl)cc2)c2nc3ccccc3cc12`, the TGI (UACC-257 melanoma) was over 100 µM, the TGI (CCRF-CEM leukemia) was over 100 µM and the TGI (NCI-H522 lung) was over 100 µM. The TGI (MDA-MB-231 breast) was over 100 µM, the TGI (SK-OV-3 ovarian) was over 100 µM and the TGI (EKVX NSCLC) was over 100 µM. The TGI (MDA-MB-435) was over 100 µM, the TGI (OVCAR-8 ovarian) was over 100 µM and the TGI (M14 melanoma) was over 100 µM. It also gave a TGI (SR leukemia) of over 100 µM, a TGI (SNB-19 CNS) of over 100 µM and a TGI (HOP-92 NSCLC) of 83.7 µM. The TGI (OVCAR-4 ovarian) was over 100 µM, the TGI (U251 CNS) was over 100 µM and the TGI (UACC-62 melanoma) was over 100 µM. It also gave a TGI (T-47D breast) of over 100 µM, a TGI (KM12 colon) of over 100 µM and a TGI (UO-31 renal) of over 100 µM. The TGI (SK-MEL-2 melanoma) was over 100 µM, the TGI (IGROV1 ovarian) was over 100 µM and the TGI (MCF7 breast) was over 100 µM. It also gave a TGI (ACHN renal) of over 100 µM, a TGI (COLO 205 colon) of over 100 µM and a TGI (BT-549 breast) of 67.1 µM. It also gave a TGI (LOX IMVI melanoma) of over 100 µM, a TGI (A498 renal) of over 100 µM and a TGI (HL-60(TB) leukemia) of over 100 µM. For the same molecule, the TGI (SNB-75 CNS) was 97 µM, the TGI (DU-145 prostate) was over 100 µM and the TGI (HCC-2998 colon) was over 100 µM. It also gave a TGI (OVCAR-5 ovarian) of over 100 µM, a TGI (K-562 leukemia) of over 100 µM and a TGI (HOP-62 NSCLC) of over 100 µM. For the same molecule, the TGI (PC-3 prostate) was over 100 µM, the TGI (SK-MEL-28 melanoma) was over 100 µM and the TGI (SW-620 colon) was over 100 µM. For the same molecule, the TGI (NCI-H226 lung) was over 100 µM, the TGI (SF-268 CNS) was over 100 µM and the TGI (RXF 393 renal) was over 100 µM. The TGI (NCI-H23 lung) was over 100 µM, the TGI (SK-MEL-5 melanoma) was over 100 µM and the TGI (HCT-15 colon) was over 100 µM. It also gave a TGI (HT29 colon) of over 100 µM, a TGI (MDA-N) of over 100 µM and a TGI (CAKI-1 renal) of over 100 µM. It also gave a TGI (SN12C renal) of over 100 µM, a TGI (786-0 renal) of over 100 µM and a TGI (RPMI-8226 leukemia) of over 100 µM. For the same molecule, the TGI (OVCAR-3 ovarian) was over 100 µM, the TGI (MALME-3M melanoma) was over 100 µM and the TGI (NCI/ADR-RES ovarian) was over 100 µM. The TGI (HS 578T breast) was over 100 µM, the TGI (TK-10 renal) was 98.3 µM and the TGI (NCI-H460 lung) was over 100 µM. For the same molecule, the TGI (HCT-116 colon) was over 100 µM, the TGI (A549 NSCLC) was over 100 µM and the TGI (SF-295 CNS) was over 100 µM.
Molecule `CCOC(=O)C(Cc1ccc(N(CCCl)CCCl)cc1)NC(=O)CCCN1C(=O)CN=C(c2ccccc2)c2cc(Cl)ccc21` (stereo not drawn) has a TGI (UACC-257 melanoma) of 8.31 µM, a TGI (CCRF-CEM leukemia) of over 100 µM and a TGI (NCI-H522 lung) of 13.2 µM. For the same molecule, the TGI (MDA-MB-231 breast) was 78.6 µM, the TGI (SK-OV-3 ovarian) was over 100 µM and the TGI (EKVX NSCLC) was over 100 µM. It also gave a TGI (MDA-MB-435) of over 59.5 µM, a TGI (OVCAR-8 ovarian) of over 100 µM and a TGI (M14 melanoma) of 22.3 µM. It also gave a TGI (SR leukemia) of over 27.3 µM, a TGI (SNB-19 CNS) of over 100 µM and a TGI (HOP-92 NSCLC) of 8.85 µM. It also gave a TGI (OVCAR-4 ovarian) of 98.3 µM, a TGI (U251 CNS) of over 100 µM and a TGI (UACC-62 melanoma) of 5.95 µM. For the same molecule, the TGI (T-47D breast) was 11.2 µM, the TGI (KM12 colon) was over 100 µM and the TGI (UO-31 renal) was 30.8 µM. For the same molecule, the TGI (SK-MEL-2 melanoma) was 29.9 µM, the TGI (IGROV1 ovarian) was 16.9 µM and the TGI (MCF7 breast) was over 100 µM. For the same molecule, the TGI (ACHN renal) was 22.5 µM, the TGI (COLO 205 colon) was 37.8 µM and the TGI (BT-549 breast) was over 100 µM. It also gave a TGI (LOX IMVI melanoma) of 8.99 µM, a TGI (A498 renal) of over 100 µM and a TGI (HL-60(TB) leukemia) of 7.51 µM. The TGI (SNB-75 CNS) was 51.3 µM, the TGI (DU-145 prostate) was over 64.7 µM and the TGI (HCC-2998 colon) was over 49.7 µM. For the same molecule, the TGI (OVCAR-5 ovarian) was over 100 µM, the TGI (K-562 leukemia) was over 100 µM and the TGI (SF-539 CNS) was 16.3 µM. The TGI (HOP-62 NSCLC) was over 100 µM, the TGI (PC-3 prostate) was over 100 µM and the TGI (SK-MEL-28 melanoma) was 8.35 µM. The TGI (SW-620 colon) was over 62.3 µM, the TGI (NCI-H226 lung) was 97 µM and the TGI (SF-268 CNS) was 71.5 µM. The TGI (RXF 393 renal) was 8.77 µM, the TGI (MOLT-4 leukemia) was over 100 µM and the TGI (NCI-H23 lung) was over 39 µM. It also gave a TGI (SK-MEL-5 melanoma) of 25.2 µM, a TGI (HCT-15 colon) of over 100 µM and a TGI (HT29 colon) of over 100 µM. It also gave a TGI (MDA-N) of 19.1 µM, a TGI (CAKI-1 renal) of over 55.7 µM and a TGI (SN12C renal) of 14.5 µM. It also gave a TGI (786-0 renal) of over 77.5 µM, a TGI (RPMI-8226 leukemia) of 20.7 µM and a TGI (OVCAR-3 ovarian) of 5.32 µM. The TGI (MALME-3M melanoma) was 7.71 µM, the TGI (NCI/ADR-RES ovarian) was over 87.1 µM and the TGI (HS 578T breast) was 52 µM. It also gave a TGI (TK-10 renal) of over 100 µM, a TGI (NCI-H460 lung) of over 100 µM and a TGI (HCT-116 colon) of over 100 µM. For the same molecule, the TGI (A549 NSCLC) was over 100 µM and the TGI (SF-295 CNS) was over 100 µM.
In the case of `Cc1ccc(N2C(N)=C(C#N)C(C#N)(C#N)C2c2ccccc2)cc1` (stereo not drawn), the TGI (UACC-257 melanoma) is reported as 30.4 µM, the TGI (CCRF-CEM leukemia) is reported as 7.33 µM and the TGI (NCI-H522 lung) is reported as 21.5 µM. For the same molecule, the TGI (MDA-MB-231 breast) was 25.3 µM, the TGI (SK-OV-3 ovarian) was 47.6 µM and the TGI (EKVX NSCLC) was 46 µM. It also gave a TGI (MDA-MB-435) of 14.1 µM, a TGI (OVCAR-8 ovarian) of 40.2 µM and a TGI (M14 melanoma) of 30.5 µM. For the same molecule, the TGI (SR leukemia) was 33.7 µM, the TGI (SNB-19 CNS) was 34.5 µM and the TGI (HOP-92 NSCLC) was 21.8 µM. The TGI (OVCAR-4 ovarian) was 26.9 µM, the TGI (U251 CNS) was 31.6 µM and the TGI (UACC-62 melanoma) was 26.7 µM. For the same molecule, the TGI (T-47D breast) was 21.4 µM, the TGI (KM12 colon) was 33.6 µM and the TGI (UO-31 renal) was 32 µM. For the same molecule, the TGI (SK-MEL-2 melanoma) was 38.2 µM, the TGI (IGROV1 ovarian) was 20.2 µM and the TGI (MCF7 breast) was 18.8 µM. For the same molecule, the TGI (ACHN renal) was 28.2 µM, the TGI (COLO 205 colon) was 24 µM and the TGI (BT-549 breast) was 23.5 µM. For the same molecule, the TGI (LOX IMVI melanoma) was 23.9 µM, the TGI (A498 renal) was 35.7 µM and the TGI (HL-60(TB) leukemia) was 6.15 µM. For the same molecule, the TGI (SNB-75 CNS) was 28 µM, the TGI (DU-145 prostate) was 28.2 µM and the TGI (HCC-2998 colon) was 25.8 µM. It also gave a TGI (OVCAR-5 ovarian) of 32.4 µM, a TGI (SF-539 CNS) of 29.2 µM and a TGI (HOP-62 NSCLC) of 36.9 µM. It also gave a TGI (PC-3 prostate) of 44.9 µM, a TGI (SK-MEL-28 melanoma) of 22.3 µM and a TGI (SW-620 colon) of 15.2 µM. The TGI (NCI-H226 lung) was 38.9 µM, the TGI (SF-268 CNS) was 65.9 µM and the TGI (RXF 393 renal) was 25.3 µM. It also gave a TGI (MOLT-4 leukemia) of 8.27 µM, a TGI (NCI-H23 lung) of 38.1 µM and a TGI (SK-MEL-5 melanoma) of 20.9 µM. It also gave a TGI (HCT-15 colon) of 22.6 µM, a TGI (HT29 colon) of 13.9 µM and a TGI (MDA-N) of 12 µM. The TGI (CAKI-1 renal) was 30.9 µM, the TGI (SN12C renal) was 30.9 µM and the TGI (786-0 renal) was 30.3 µM. It also gave a TGI (RPMI-8226 leukemia) of 32.1 µM, a TGI (OVCAR-3 ovarian) of 27.4 µM and a TGI (MALME-3M melanoma) of 27.8 µM. For the same molecule, the TGI (NCI/ADR-RES ovarian) was 36.1 µM, the TGI (HS 578T breast) was 76.7 µM and the TGI (TK-10 renal) was 28 µM. For the same molecule, the TGI (HCT-116 colon) was 14.4 µM, the TGI (A549 NSCLC) was 38.2 µM and the TGI (SF-295 CNS) was 60.3 µM.
